In ChEMBL document CHEMBL4184266, “Bacicyclin, a new antibacterial cyclic hexapeptide from Bacillus sp. strain BC028 isolated from Mytilus edulis” (Bioorg Med Chem Lett, 2018):
In brackets after ≈: the same amount, converted by molar mass. Activity calls are given as the source filed them. No cut-off for these calls is given here.

Assays:
Enterococcus faecalis = assay: Antibacterial activity against Enterococcus faecalis JH212 assessed as inhibition of bacterial growth incubated for 18 hrs by […]; type: functional; conditions: JH212, 18 h
Staphylococcus aureus = assay: Antibacterial activity against Staphylococcus aureus NCTC 8325 assessed as inhibition of bacterial growth incubated for 18 hrs by […]; type: functional; conditions: NCTC 8325, 18 h
Enterococcus faecium = assay: Antibacterial activity against Enterococcus faecium 6413 assessed as inhibition of bacterial growth incubated for 18 hrs by […]; type: functional, organism-based
[1] = test system: Staphylococcus epidermidis; assay: Antibacterial activity against Staphylococcus epidermidis RP62A assessed as inhibition of bacterial growth incubated for 18 hrs by […]; type: functional, organism-based
Escherichia coli = assay: Antibacterial activity against Escherichia coli 536 assessed as inhibition of bacterial growth incubated for 18 hrs by […]; type: functional, organism-based
Pseudomonas aeruginosa = assay: Antibacterial activity against Pseudomonas aeruginosa isolate number 3 assessed as inhibition of bacterial growth incubated for 18 hrs by […]; type: functional, organism-based
[2] = Cytotoxicity against mouse J774.1 cells incubated for 24 hrs and measured 48 and 72 hrs post dye addition by Alamar blue dye based assay; type: cell-based

CC[C@H](C)[C@@H]1NC(=O)[C@H](C(C)C)NC(=O)[C@H](CC(C)C)NC(=O)CNC(=O)[C@@H](Cc2ccccc2)NC(=O)[C@@H](C)NC1=O [listing 1 of 2 here]
MIC (Enterococcus faecalis): 8 µM (≈ 4.81 µg/mL)
MIC (Staphylococcus aureus): 12 µM (≈ 7.21 µg/mL)

CC[C@H](C)[C@@H]1NC(=O)[C@@H](C)NC(=O)[C@@H](Cc2ccccc2)NC(=O)CNC(=O)[C@H](CC(C)C)NC(=O)[C@H](C(C)C)NC1=O
growth inhibition (GI) (Enterococcus faecium): inactive
growth inhibition (GI) [1]: inactive
growth inhibition (GI) (Escherichia coli): inactive
growth inhibition (GI) (Pseudomonas aeruginosa): inactive

CN[C@@H]1[C@H](O[C@H]2[C@H](O[C@H]3[C@H](O)[C@@H](O)[C@H](N=C(N)N)[C@@H](O)[C@@H]3N=C(N)N)O[C@@H](C)[C@]2(O)C=O)O[C@@H](CO)[C@H](O)[C@H]1O [STREPTOMYCIN]
MIC (Enterococcus faecalis): 5.24 µM (≈ 3.05 µg/mL)
MIC (Staphylococcus aureus): 2.09 µM (≈ 1.22 µg/mL)

CC[C@H](C)[C@@H]1NC(=O)[C@H](C(C)C)NC(=O)[C@H](CC(C)C)NC(=O)CNC(=O)[C@@H](Cc2ccccc2)NC(=O)[C@@H](C)NC1=O [listing 2 of 2 here]
CC50 at 24 h [2]: > 200 µM
